# Target: Prothrombin (Homo sapiens) (UniProt P00734)
# Experiment: Relative prothrombin time was determined as the activity of the test ODN (oligodeoxynucleotide) relative to that of GS-522
row,Relative PT,SMILES
1,0.8,Cc1cn([C@H]2C[C@H](OCOC[C@H]3O[C@@H](n4cnc5c(=O)nc(N)[nH]c54)C[C@@H]3OP(=O)(O)OC[C@H]3O[C@@H](n4cc(C)c(=O)[nH]c4=O)C[C@@H]3OP(=O)(O)OC[C@H]3O[C@@H](n4cnc5c(=O)nc(N)[nH]c54)C[C@@H]3OP(=O)(O)OC[C@H]3O[C@@H](n4cnc5c(=O)[nH]c(=N)[nH]c54)C[C@@H]3OP(=O)(O)OC[C@H]3O[C@@H](n4cc(C)c(=O)[nH]c4=O)C[C@@H]3OP(=O)(O)OC[C@H]3O[C@@H](n4cc(C)c(=O)[nH]c4=O)C[C@@H]3OP(=O)(O)OC[C@H]3O[C@@H](n4cnc5c(=O)[nH]c(=N)[nH]c54)C[C@@H]3OP(=O)(O)OC[C@H]3O[C@@H](n4cnc5c(=O)nc(N)[nH]c54)C[C@@H]3O)[C@@H](COP(=O)(O)O[C@H]3C[C@H](n4cnc5c(=O)[nH]c(=N)[nH]c54)O[C@@H]3COP(=O)(O)O[C@H]3C[C@H](n4cnc5c(=O)nc(N)[nH]c54)O[C@@H]3COP(=O)(O)O[C@H]3C[C@H](n4cc(C)c(=O)[nH]c4=O)O[C@@H]3COP(=O)(O)O[C@H]3C[C@H](n4cc(C)c(=O)[nH]c4=O)O[C@@H]3COP(=O)(O)O[C@H]3C[C@H](n4cnc5c(=O)nc(N)[nH]c54)O[C@@H]3COP(=O)(O)O[C@H]3C[C@H](n4cnc5c(=O)nc(N)[nH]c54)O[C@@H]3COP(=O)(O)O)O2)c(=O)[nH]c1=O
2,0.8,Cc1cn([C@H]2C[C@H](OP(=O)(O)OC[C@H]3O[C@@H](n4cnc5c(=O)[nH]c(=N)[nH]c54)C[C@@H]3OP(=O)(O)OC[C@H]3O[C@@H](n4cc(C)c(=O)[nH]c4=O)C[C@@H]3OP(=O)(O)OC[C@H]3O[C@@H](n4cnc5c(=O)nc(N)[nH]c54)C[C@@H]3OP(=O)(O)OC[C@H]3O[C@@H](n4cnc5c(=O)[nH]c(=N)[nH]c54)C[C@@H]3OP(=O)(O)OC[C@H]3O[C@@H](n4cc(C)c(=O)[nH]c4=O)C[C@@H]3OP(=O)(O)OC[C@H]3O[C@@H](n4cc(C)c(=O)[nH]c4=O)C[C@@H]3OP(=O)(O)OC[C@H]3O[C@@H](n4cnc5c(=O)[nH]c(=N)[nH]c54)C[C@@H]3OP(=O)(O)OC[C@H]3O[C@@H](n4cnc5c(=O)nc(N)[nH]c54)C[C@@H]3O)[C@@H](COCO[C@H]3C[C@H](n4cnc5c(=O)[nH]c(=N)[nH]c54)O[C@@H]3COP(=O)(O)O[C@H]3C[C@H](n4cnc5c(=O)nc(N)[nH]c54)O[C@@H]3COP(=O)(O)O[C@H]3C[C@H](n4cc(C)c(=O)[nH]c4=O)O[C@@H]3COP(=O)(O)O[C@H]3C[C@H](n4cc(C)c(=O)[nH]c4=O)O[C@@H]3COP(=O)(O)O[C@H]3C[C@H](n4cnc5c(=O)nc(N)[nH]c54)O[C@@H]3COP(=O)(O)O[C@H]3C[C@H](n4cnc5c(=O)nc(N)[nH]c54)O[C@@H]3COP(=O)(O)O)O2)c(=O)[nH]c1=O
3,1.1,Cc1cn([C@H]2C[C@H](OCOC[C@H]3O[C@@H](n4cnc5c(=O)nc(N)[nH]c54)C[C@@H]3OP(=O)(O)OC[C@H]3O[C@@H](n4cnc5c(=O)[nH]c(=N)[nH]c54)C[C@@H]3OP(=O)(O)OC[C@H]3O[C@@H](n4cc(C)c(=O)[nH]c4=O)C[C@@H]3OCOC[C@H]3O[C@@H](n4cc(C)c(=O)[nH]c4=O)C[C@@H]3OP(=O)(O)OC[C@H]3O[C@@H](n4cnc5c(=O)[nH]c(=N)[nH]c54)C[C@@H]3OP(=O)(O)OC[C@H]3O[C@@H](n4cnc5c(=O)nc(N)[nH]c54)C[C@@H]3O)[C@@H](COP(=O)(O)O[C@H]3C[C@H](n4cnc5c(O)nc(=N)[nH]c54)O[C@@H]3COP(=O)(O)O[C@H]3C[C@H](n4cc(C)c(=O)[nH]c4=O)O[C@@H]3COP(=O)(O)O[C@H]3C[C@H](n4cnc5c(=O)[nH]c(=N)[nH]c54)O[C@@H]3COP(=O)(O)O[C@H]3C[C@H](n4cnc5c(=O)nc(N)[nH]c54)O[C@@H]3COP(=O)(O)O[C@H]3C[C@H](n4cc(C)c(=O)[nH]c4=O)O[C@@H]3COCO[C@H]3C[C@H](n4cc(C)c(=O)[nH]c4=O)O[C@@H]3COP(=O)(O)O[C@H]3C[C@H](n4cnc5c(=O)nc(N)[nH]c54)O[C@@H]3COP(=O)(O)O[C@H]3C[C@H](n4cnc5c(=O)[nH]c(=N)[nH]c54)O[C@@H]3COP(=O)(O)O)O2)c(=O)[nH]c1=O
4,1.1,Cc1cn([C@H]2C[C@H](OCOC[C@H]3O[C@@H](n4cc(C)c(=O)[nH]c4=O)C[C@@H]3OP(=O)(O)OC[C@H]3O[C@@H](n4cnc5c(=O)[nH]c(=N)[nH]c54)C[C@@H]3OP(=O)(O)OC[C@H]3O[C@@H](n4cnc5c(=O)nc(N)[nH]c54)C[C@@H]3O)[C@@H](COP(=O)(O)O[C@H]3C[C@H](n4cnc5c(=O)[nH]c(=N)[nH]c54)O[C@@H]3COP(=O)(O)O[C@H]3C[C@H](n4cnc5c(=O)nc(N)[nH]c54)O[C@@H]3COP(=O)(O)O[C@H]3C[C@H](n4cc(C)c(=O)[nH]c4=O)O[C@@H]3COP(=O)(O)O[C@H]3C[C@H](n4cnc5c(=O)[nH]c(=N)[nH]c54)O[C@@H]3COP(=O)(O)O[C@H]3C[C@H](n4cc(C)c(=O)[nH]c4=O)O[C@@H]3COP(=O)(O)O[C@H]3C[C@H](n4cnc5c(=O)[nH]c(=N)[nH]c54)O[C@@H]3COP(=O)(O)O[C@H]3C[C@H](n4cnc5c(=O)nc(N)[nH]c54)O[C@@H]3COP(=O)(O)O[C@H]3C[C@H](n4cc(C)c(=O)[nH]c4=O)O[C@@H]3COP(=O)(O)O[C@H]3C[C@H](n4cc(C)c(=O)[nH]c4=O)O[C@@H]3COP(=O)(O)O[C@H]3C[C@H](n4cnc5c(=O)nc(N)[nH]c54)O[C@@H]3COP(=O)(O)O[C@H]3C[C@H](n4cnc5c(=O)nc(N)[nH]c54)O[C@@H]3COP(=O)(O)O)O2)c(=O)[nH]c1=O

# Reference: ChEMBL document CHEMBL1131152, “In vitro and in vivo activities of oligodeoxynucleotide-based thrombin inhibitors containing neutral formacetal linkages” (J Med Chem, 1998)
